The values that follow come from patent US12396968B2, “Mitofusin activators having an endocyclic-bonded carbonyl group and methods for use thereof” (priority 2022, dated 2025).

A short description of data set [1]: Passive artificial blood brain barrier membrane permeability assay (PAMPA-BBB). The data set is classed as in vitro ADME. Particulars: 10 μM compound, 1% porcine brain polar lipid extract/dodecane, room temperature. As for the experimental part: Passive artificial blood brain barrier membrane permeability assay (PAMPA-BBB) were performed using 150 μL of 10 μM compounds (5% DMSO) added to PVDF membranes pre-coated with 5 μL of 1% brain polar lipid extract (Porcine)/dodecane mixture and incubated for 4 h at room temperature with shaking at 300 rpm. Donor and acceptor samples were analyzed by LC-MS/MS.
(§1) Further testing details for the MFN activity and PAMPA are provided in U.S. Patent Applications 2020/0345668 and 2020/0345669, incorporated herein by reference above.
Background: In PAMPA a lipid-coated filter parts donor from acceptor wells.

Data set [2] in a line: Plasma protein binding by equilibrium dialysis, mouse. Particulars: read-out: Plasma Protein Binding (Bound %) Mouse (converted). The data set is classed as in vitro ADME. As for the experimental part: (§2) In vitro pharmacokinetic analyses were performed in duplicate using standard methods by WuXi AppTec Co. Ltd. (Shanghai, China). Plasma protein binding was measured by equilibrium dialysis; % bound=(1−[free compound in dialysate]/[total compound in retentate])×100. Plasma stability of 2 uM compounds in clarified freeze-thawed plasma was assessed by LC-MS/MS of supernatants after protein precipitation; 120 min data are reported for studies including 0, 10, 30, 60, and 120 min. Liver microsome stability of 1 uM compounds in liver microsomes (0.5 mg/ml) after 0, 5, 10, 20, 30, 60 min. incubation was assessed by LC/MS/MS of reaction extracts.

Data set [3] can be described thus: Plasma protein binding by equilibrium dialysis, human. Particulars: read-out: Plasma Protein Binding (Bound %) Human (converted). In kind it is in vitro ADME. As for the experimental part:
as §2

Data set [4] in a line: Liver microsome stability, human. The data set is classed as in vitro ADME. Particulars: human liver microsomes 0.5 mg/ml, 1 uM compound; read-out: Liver Microsomes (t1/2, minutes) Human. As for the experimental part: as §2
In general terms: Liver microsomes are vesicles of endoplasmic reticulum, rich in cytochrome P450 enzymes.

Data set [5] in a line: Liver microsome stability, mouse. In kind it is in vitro ADME. Particulars: mouse liver microsomes 0.5 mg/ml, 1 uM compound; read-out: Liver Microsomes (t1/2, minutes) Mouse. As for the experimental part:
as §2

Data set [6] deals with mitofusin. The data set can be described thus: Dose-response of mitofusin agonist fusogenicity (mitochondrial aspect ratio) in Mfn1- or Mfn2-deficient MEFs. In kind it is cell-based, mouse. Particulars: Mfn1-KO or Mfn2-KO MEFs, compounds overnight, mitochondrial aspect ratio indexed to maximal response of Compound 35. As for the experimental part:
Dose-response of mitofusin agonist fusogenicity was performed in Mfn1- or Mfn2-deficient MEFs (Mfn1-KO or Mfn2-KO MEFs) cultured at 37° C. and 5% CO2-95% air. Cells were seeded on day 1 in 6 well plates at a density of 2×10^4 cells per well and compounds added at 9 concentrations (0.5 nM-10 μM dissolved in DMSO) overnight. Mitochondria were then stained with MitoTracker Orange (200 nM; M7510; Invitrogen, Carlsbad, CA, USA). Nuclei were stained with Hoescht (10 μg/ml; Invitrogen, Thermo Fisher Scientific Cat: #H3570). Images were acquired at room temperature on a Nikon Ti Confocal microscope using a 60×1.3 NA oil-immersion objective in Krebs-Henseleit buffer (138 NaCl, […] pH: 7.2-7.5, and 1 mM CaCl2). Laser excitation was 549 nm with emission at 590 nm for MitoTracker Orange and excitation at 306 nm with emission at 405 nm for Hoescht. Images were analyzed using ImageJ and fusogenicity quantified as mitochondrial aspect ratio (length/width), and were indexed to the maximal response elicited by Compound 35, a known mitofusin activator. Response curves were interpolated using the sigmoidal model using Prism 8 software. EC50 values are reported as mean with 95% confidence limits for at least 3 independent experiments.
as §1

In the case of `O=C(CCCCCCCc1ccccc1)N1CCC(O)CC1` [Formula 10], the Papp (usually a coefficient for how fast a substance crosses the barrier) at 4 h, 10 μM in data set [1] was determined as 143 ×10⁻⁶ cm/s. Also, the fraction unbound is 0.011 in data set [2] and 0.014 in data set [3]. The half-life at 1 uM in data set [4] was found to be 64.5 min; in data set [5], 28 min. Also, in data set [6], the EC50 – broadly, the midpoint of the concentration-response curve – is 12.2 nM.

`O=C(NC1CC(CCCc2ccccc2)C1)C1CCC(O)CC1` (centres unmarked) [Formula 31A]: in data set [1], the Papp at 4 h, 10 μM amounted to 95.1 ×10⁻⁶ cm/s. The fraction unbound in data set [2] is 0.029; in data set [3], 0.042. For the same compound, the half-life at 1 uM in data set [4] amounted to 110 min; in data set [5] it was 224 min. Also, in data set [6], the EC50 came to 9 nM.

In turn, `O=C(NC1CC1OCCCc1ccccc1)C1CCC(O)CC1` (centres unmarked) [Formula 34A] had a Papp at 4 h, 10 μM in data set [1] of 10.5 ×10⁻⁶ cm/s. The fraction unbound in data set [2] is 0.221; in data set [3], 0.37. In addition, the half-life at 1 uM in data set [4] and in data set [5] was greater than 145 min in each case. The EC50 in data set [6] was determined as 26.7 nM.

`O=C(N[C@H]1C[C@@H]1OCCc1ccccc1)[C@H]1CC[C@H](O)CC1` [Formula 32A] came in with a Papp at 4 h, 10 μM in data set [1] of 5.43 ×10⁻⁶ cm/s. Further, the fraction unbound is 0.279 in data set [2] and 0.535 in data set [3]. Besides, the half-life at 1 uM in data set [4] and in data set [5] was greater than 145 min throughout. For the same compound, the EC50 in data set [6] stood at 10.5 nM.

`O=C(CCCCCCc1ccccc1)N1CCCC(O)C1` (centres unmarked) [Formula 8] displayed a Papp at 4 h, 10 μM in data set [1] of 180 ×10⁻⁶ cm/s. Moreover, the fraction unbound in data set [2] was 0.041; in data set [3], 0.034. Also, the half-life at 1 uM in data set [4] is 60.6 min; in data set [5], 22.5 min. Also, the EC50 in data set [6] was greater than 10000 nM.

The compound `O=C(NC1CC1OCc1ccccc1)C1CCC(O)CC1` (centres unmarked) [Formula 33A] had a Papp at 4 h, 10 μM in data set [1] of 2.28 ×10⁻⁶ cm/s. Moreover, the fraction unbound was 0.361 in data set [2] and 0.626 in data set [3]. In addition, the half-life at 1 uM in data set [4] and in data set [5] was greater than 145 min in each case. For the same compound, the EC50 in data set [6] is 10.8 nM.

With `O=C(CCCCCCc1ccccc1)N1CCC(O)CC1` [Formula 7], in data set [1], the Papp at 4 h, 10 μM was 145 ×10⁻⁶ cm/s. The fraction unbound in data set [2] is 0.043; in data set [3] it was 0.049. The half-life at 1 uM worked out at 103 min in data set [4] and 52.5 min in data set [5]. For the same compound, the EC50 in data set [6] came to 30.5 nM.

On to `O=C(NC1CC1CCCCc1ccccc1)C1CCC(O)CC1` (centres unmarked) [Formula 30A], for which the Papp at 4 h, 10 μM in data set [1] was determined as 86.8 ×10⁻⁶ cm/s. Also, the EC50 in data set [6] stood at 5.3 nM.

Turning to `O=C(CCCCCc1ccccc1)N1CCC(O)CC1` [Formula 9], the Papp at 4 h, 10 μM in data set [1] stood at 96.1 ×10⁻⁶ cm/s. The fraction unbound in data set [2] was 0.088; in data set [3], 0.163. Also, the half-life at 1 uM in data set [4] is greater than 145 min; in data set [5] it was 82.4 min. Further, the EC50 in data set [6] was greater than 10000 nM.

Take `O=C(NCCCCCc1ccccc1)C1CCC(O)CC1` (centres unmarked) [Formula 26]: the Papp at 4 h, 10 μM in data set [1] turned out to be 30.2 ×10⁻⁶ cm/s. For the same compound, the fraction unbound in data set [2] was 0.071; in data set [3], 0.107. Also, the half-life at 1 uM was greater than 145 min in data set [4] and 102 min in data set [5]. The EC50 in data set [6] came out at 9.68 nM.
